IC50 data for 19 compounds are collected here from patent US20230374015A1, “INHIBITORS OF FIBROBLAST GROWTH FACTOR RECEPTOR KINASES” (Kinnate Biopharma Inc., priority 2020, published 2023).

The target in this assay is FGFR2 (Homo sapiens, UniProt P21802). Nature of the assay: FGFR2 Kinase Protocol - Condition 2 (Reaction Biology HotSpot radiometric kinase assay, no preincubation). It counts as biochemical. Particulars: poly[Glu:Tyr] (4:1) 0.2 mg/ml, ATP 100 microM, 2 hr room temperature. The method, then:
Example 2: FGFR2 Kinase Protocol—Condition 2
The Reaction Biology HotSpot assay platform (http://www.reactionbiology.com) was used to measure kinase/inhibitor interactions as described previously (Anastassiadis et al., 2011). In brief, for each reaction, kinase and substrate were mixed in a buffer containing 20 mM HEPES (pH 7.5), 10 mM MgCl2, 1 mM EGTA, 0.02% Brij35, 0.02 mg/mL BSA, 0.1 mM Na3VO4, 2 mM DTT, and 1% DMSO. All compounds were in powder form and freshly solubilized in DMSO for assays. Compounds were then added to each reaction mixture via acoustic dispense using an ECHO 550 nanoliter dispenser. For Human FGFR2 wildtype testing, a peptide substrate, poly[Glu:Tyr] (4:1) was used to promote the reaction at a concentration of 0.2 mg/ml. For Human FGFR2 (V564F) testing, a peptide substrate, poly[Glu:Tyr] (4:1) was used to promote the reaction at a concentration of 0.2 mg/ml. ATP concentration for all assays was maintained at 100 micromolar. Compounds were tested in 10-dose IC50 mode with a 3-fold serial dilution. Compounds were added to plates and ATP was added directly to the wells. ATP (Sigma-Aldrich, St. Louis, MO 63178) and [g33P] ATP (specific activity 10 microCi/microliter) purchased at PerkinElmer (Boston, MA, 02118 Cat #BLU 003H250UC) were added at a final total concentration of 100 microM to each well with no preincubation. Reactions were carried out at room temperature for 2 hr and spotted onto P81 ion exchange cellulose chromatography paper (Reaction Biology). Filter paper was washed in 0.75% phosphoric acid to remove unincorporated ATP. The percent remaining kinase activity relative to a vehicle-containing (DMSO) kinase reaction was calculated for each kinase/inhibitor pair. IC50 values were calculated using Dotmatics Knowledge Solutions Studies curve fitting (Dotmatics, Bishops Stortford, UK, CM23).

Sequence of FGFR2 (P21802 22-821): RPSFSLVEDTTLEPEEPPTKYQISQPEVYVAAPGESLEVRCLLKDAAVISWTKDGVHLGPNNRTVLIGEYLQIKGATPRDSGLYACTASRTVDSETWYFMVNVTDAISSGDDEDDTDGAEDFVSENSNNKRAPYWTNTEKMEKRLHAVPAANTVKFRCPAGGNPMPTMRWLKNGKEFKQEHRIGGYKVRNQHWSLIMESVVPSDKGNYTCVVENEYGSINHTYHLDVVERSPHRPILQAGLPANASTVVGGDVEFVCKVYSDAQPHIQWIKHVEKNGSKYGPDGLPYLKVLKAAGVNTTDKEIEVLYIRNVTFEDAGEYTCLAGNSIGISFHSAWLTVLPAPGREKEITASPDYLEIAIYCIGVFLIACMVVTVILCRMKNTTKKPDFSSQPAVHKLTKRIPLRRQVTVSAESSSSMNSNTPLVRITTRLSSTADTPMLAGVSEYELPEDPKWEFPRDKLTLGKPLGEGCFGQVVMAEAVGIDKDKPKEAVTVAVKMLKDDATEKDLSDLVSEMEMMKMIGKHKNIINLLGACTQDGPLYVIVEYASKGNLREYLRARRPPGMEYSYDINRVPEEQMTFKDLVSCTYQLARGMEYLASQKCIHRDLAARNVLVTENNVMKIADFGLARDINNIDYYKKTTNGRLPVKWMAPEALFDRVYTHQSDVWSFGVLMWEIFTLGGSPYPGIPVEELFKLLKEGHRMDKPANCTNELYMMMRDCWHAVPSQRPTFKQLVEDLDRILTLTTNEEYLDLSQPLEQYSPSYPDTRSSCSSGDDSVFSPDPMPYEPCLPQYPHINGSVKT

As for `C=CC(=O)N1C[C@@H](n2cc(C#Cc3cc4ncn(C5CC5)c4cc3Cl)c3c(N)ncnc32)C[C@@H]1COC` [Example 127, 1-[(2R,4S)-4-[4-Amino-5-[2-(6-chloro-1-cyclopropyl-1,3-benzodiazol-5-yl)ethynyl]pyrrolo[2,3-d]pyrimidin-7-yl]-2-(methoxymethyl)pyrrolidin-1-yl] prop-2-en-1-one], the IC50 was ≤ 100 nM. Next, `C=CC(=O)N1CC[C@H](n2nc(C#Cc3cc4ncn(C)c4cc3F)c3c(N)nccc32)C1` [Example 141, 1-[(3S)-3-{4-Amino-3-[2-(6-fluoro-1-methyl-1,3-benzodiazol-5-yl)ethynyl]pyrazolo[4,3-c]pyridin-1-yl}pyrrolidin-1-yl]prop-2-en-1-one]: ≤ 100 nM; `C=CC(=O)N1C[C@@H](n2nc(C#Cc3ccc4c(cnn4CC)c3)c3c(N)ncnc32)C[C@@H]1COC` [Example 34, 1-((2R,4S)-4-(4-amino-3-((1-ethyl-1H-indazol-5-yl)ethynyl)-1H-pyrazolo[3,4-d]pyrimidin-1-yl)-2-(methoxymethyl)pyrrolidin-1-yl)prop-2-en-1-one]: ≤ 100 nM; `C=CC(=O)N1C[C@@H](n2nc(C#Cc3c(F)cc4c(cnn4C)c3F)c3c(N)nccc32)C[C@@H]1COC` [Example 50, 1-((2R,4S)-4-(4-amino-3-((4,6-difluoro-1-methyl-1H-indazol-5-yl)ethynyl)-1H-pyrazolo[4,3-c]pyridin-1-yl)-2-(methoxymethyl)pyrrolidin-1-yl)prop-2-en-1-one]: ≤ 100 nM. Next, `C=CC(=O)N1C[C@@H](n2nc(C#Cc3ccc4nn(C)cc4c3)c3c(N)ncnc32)C[C@@H]1COC` [Example 41, 1-[(2R,4S)-4-[4-amino-3-[2-(2-methylindazol-5-yl)ethynyl]pyrazolo[3,4-d]pyrimidin-1-yl]-2-(methoxymethyl)pyrrolidin-1-yl]prop-2-en-1-one]: 100 to 1000 nM; `C=CC(=O)N1C[C@@H](n2nc(C#Cc3c(F)cc4nn(CC)cc4c3F)c3c(N)nccc32)C[C@@H]1COC` [Example 51, 1-((2R,4S)-4-(4-amino-3-((2-ethyl-4,6-difluoro-2H-indazol-5-yl)ethynyl)-1H-pyrazolo[4,3-c]pyridin-1-yl)-2-(methoxymethyl)pyrrolidin-1-yl)prop-2-en-1-one]: 100 to 1000 nM; `C=CC(=O)N1C[C@@H](n2cc(C#Cc3c(F)cc4c(ncn4C)c3F)c3c(N)ncnc32)C[C@@H]1COC(F)(F)F` [Example 68, 1-((2R,4S)-4-(4-Amino-5-((4,6-difluoro-1-methyl-1H-benzo[d]imidazol-5-yl)ethynyl)-7H-pyrrolo[2,3-d]pyrimidin-7-yl)-2-((trifluoromethoxy)methyl)pyrrolidin-1-yl)prop-2-en-1-one]: ≤ 100 nM. The figure for `C=CC(=O)N1CC[C@H](n2nc(C#Cc3cc4ncn(C)c4cc3Cl)c3c(N)ncnc32)C1` [Example 147, 1-[(3S)-3-{4-Amino-3-[2-(6-chloro-1-methyl-1,3-benzodiazol-5-yl)ethynyl]pyrazolo[3,4-d]pyrimidin-1-yl}pyrrolidin-1-yl]prop-2-en-1-one] is ≤ 100 nM; for `C=CC(=O)N1C[C@@H](n2nc(C#Cc3ccc4nn(CC)cc4c3)c3c(N)ncnc32)C[C@@H]1COC` [Example 42, 1-[(2R,4S)-4-[4-amino-3-[2-(2-ethylindazol-5-yl)ethynyl]pyrazolo[3,4-d]pyrimidin-1-yl]-2-(methoxymethyl)pyrrolidin-1-yl]prop-2-en-1-one] it is 100 to 1000 nM. For `C=CC(=O)N1CC[C@H](n2nc(C#Cc3cc4ncn(C5CC5)c4cc3Cl)c3c(N)ncnc32)C1` [Example 191, 1-[(3S)-3-{4-Amino-3-[2-(6-chloro-1-cyclopropyl-1,3-benzodiazol-5-yl)ethynyl]pyrazolo[3,4-d]pyrimidin-1-yl}pyrrolidin-1-yl]prop-2-en-1-one], the half-inhibitory concentration (IC50) is ≤ 100 nM. As for `C=CC(=O)N1CC[C@H](n2nc(C#Cc3cc4ncn(CC)c4c(F)c3F)c3c(N)nccc32)C1` [Example 155, 1-[(3S)-3-{4-Amino-3-[2-(1-ethyl-6,7-difluoro-1,3-benzodiazol-5-yl)ethynyl]pyrazolo[4,3-c]pyridin-1-yl}pyrrolidin-1-yl]prop-2-en-1-one], the IC50 is ≤ 100 nM. Next, `C=CC(=O)N1C[C@@H](n2nc(C#Cc3cc4ncn(CC)c4cc3F)c3c(N)ncnc32)C[C@@H]1COC(F)(F)F` [Example 71, 1-[(2R,4S)-4-[4-amino-3-[2-(1-ethyl-6-fluoro-1,3-benzodiazol-5-yl)ethynyl]pyrazolo[3,4-d]pyrimidin-1-yl]-2-[(trifluoromethoxy)methyl]pyrrolidin-1-yl]prop-2-en-1-one]: ≤ 100 nM; `C=CC(=O)N1C[C@@H](n2cc(C#Cc3cc4ncn(C5CC5)c4cc3F)c3c(N)ncnc32)C[C@@H]1COC` [Example 110, 1-[(2R,4S)-4-[4-Amino-5-[2-(1-cyclopropyl-6-fluoro-1,3-benzodiazol-5-yl)ethynyl]pyrrolo[2,3-d]pyrimidin-7-yl]-2-(methoxymethyl)pyrrolidin-1-yl]prop-2-en-1-one]: ≤ 100 nM; `C=CC(=O)N1C[C@@H](n2nc(C#Cc3cc4ncn(C)c4cc3Cl)c3c(N)ncnc32)C[C@@H]1C(F)F` [Example 179, 1-((2R,4S)-4-(4-amino-3-((6-chloro-1-methyl-1H-benzo[d]imidazol-5-yl)ethynyl)-1H-pyrazolo[3,4-d]pyrimidin-1-yl)-2-(difluoromethyl)pyrrolidin-1-yl)prop-2-en-1-one]: ≤ 100 nM. Next, `C=CC(=O)N1C[C@@H](n2nc(C#Cc3cc4ncn(C5CC5)c4cc3Cl)c3c(N)nccc32)C[C@@H]1COC` [Example 138, 1-[(2R,4S)-4-{4-Amino-3-[2-(6-chloro-1-cyclopropyl-1,3-benzodiazol-5-yl)ethynyl]pyrazolo[4,3-c]pyridin-1-yl}-2-(methoxymethyl)pyrrolidin-1-yl]prop-2-en-1-one]: ≤ 100 nM; `C=CC(=O)N1C[C@@H](n2nc(C#Cc3cc4ncn(C)c4cc3F)c3c(N)nccc32)C[C@@H]1C(F)F` [Example 181, 1-((2R,4S)-4-(4-amino-3-((6-fluoro-1-methyl-1H-benzo[d]imidazol-5-yl)ethynyl)-1H-pyrazolo[4,3-c]pyridin-1-yl)-2-(difluoromethyl)pyrrolidin-1-yl)prop-2-en-1-one]: ≤ 100 nM; `C=CC(=O)N1CC[C@H](n2nc(C#Cc3c(F)cc4c(ncn4C4CC4)c3F)c3c(N)ncnc32)C1` [Example 195, 1-[(3S)-3-{4-Amino-3-[2-(1-cyclopropyl-4,6-difluoro-1,3-benzodiazol-5-yl)ethynyl]pyrazolo[3,4-d]pyrimidin-1-yl}pyrrolidin-1-yl]prop-2-en-1-one]: ≤ 100 nM.

`C=CC(=O)N1C[C@@H](n2nc(C#Cc3cc4ncn(C5CC5)c4cc3F)c3c(N)ncnc32)C[C@@H]1C(F)F` [Example 178, 1-((2R,4S)-4-(4-amino-3-((1-cyclopropyl-6-fluoro-1H-benzo[d]imidazol-5-yl)ethynyl)-1H-pyrazolo[3,4-d]pyrimidin-1-yl)-2-(difluoromethyl)pyrrolidin-1-yl)prop-2-en-1-one]: the IC50 was ≤ 100 nM. Next, `C=CC(=O)N1C[C@@H](n2nc(C#Cc3cc4ncn(CC)c4cc3F)c3c(N)ncnc32)C[C@@H]1COC` [Example 77, 1-[(2R,4S)-4-[4-Amino-3-[2-(1-ethyl-6-fluoro-1,3-benzodiazol-5-yl)ethynyl]pyrazolo[3,4-d]pyrimidin-1-yl]-2-(methoxymethyl)pyrrolidin-1-yl]prop-2-en-1-one]: ≤ 100 nM.

One may read the IC50 as the concentration that inhibits the measured activity by half. A lower IC50 goes with greater potency.
